Literature values as cited in patent US20010041964A1, “PHARMACOKINETIC-BASED DRUG DESIGN TOOL AND METHOD” (priority 1998, published 2001).

Experiments:
[1] = tested on: rabbit intestinal tissue (duodenum, jejunum, ileum, colon); conditions: donor concentration per compound; for Pe (cm/s) Colon: rabbit colon; for Pe (cm/s) Duodenum: rabbit duodenum; for Pe (cm/s) Ileum: rabbit ileum; for Pe (cm/s) Jejunum: rabbit jejunum
intestinal transport = conditions: permeability standard
[2] = oral, human
[3] = not given; remark: listed apart in the source
[4] = not given; remark: listed apart in the source

SMILES | Pe (cm/s) Colon [1] [cm/s] | Pe (cm/s) Duodenum [1] [cm/s] | Pe (cm/s) Ileum [1] [cm/s] | Pe (cm/s) Jejunum [1] [cm/s] | Transport mechanism (intestinal transport) | Bioavailability in humans when orally administered [2] | k12 (Appendix 2, mass-volume model) | k21 (Appendix 2, mass-volume model) | k_elim (Appendix 2, mass-volume model) | Plasma Kinetics Fluid Volume (Table 11) | Plasma Kinetics k12 (Table 11) | Plasma Kinetics k21 (Table 11) | Plasma Kinetics kelim (Table 11) | Bioavailability of fasted patients in clinical trials ([3]; fasted patients, Phase I studies) | Cmax (mcg/ml), Clinical 1505a ([3]; human clinical study 1505a) [µg/mL] | Tmax (hrs), Clinical 1505a ([3]; human clinical study 1505a) [h] | Cmax (mcg/ml), Clinical 1505b ([3]; human clinical study 1505b) [µg/mL] | Tmax (hrs), Clinical 1505b ([3]; human clinical study 1505b) [h] | In vivo biotransformation [4] | Absorption ([4]; in vivo)
O=C[C@H](O)[C@@H](O)[C@H](O)[C@H](O)CO [D-glucose] | 9.28e-06 | 4.55e-06 | 1.45e-05 | 1.02e-05 | Carrier-mediated Influx |  |  |  |  |  |  |  |  |  |  |  |  |  |  | 
OC[C@@H](O)[C@@H](O)[C@H](O)[C@H](O)CO [mannitol] | 5.53e-06 | 1.73e-06 | 4.02e-06 | 3.54e-06 | Passive Paracellular | approximately 10% |  |  |  |  |  |  |  |  |  |  |  |  |  | 
C[C@]12CCC(=O)C=C1CC[C@@H]1[C@@H]2[C@@H](O)C[C@@]2(C)[C@H]1CC[C@]2(O)C(=O)CO [hydrocortisone] | 3.85e-06 | 3e-07 | 2.91e-06 | 1.31e-06 |  |  |  |  |  |  |  |  |  |  |  |  |  |  |  | 
Nc1nc2c(ncn2COC(CO)CO)c(=O)[nH]1.[Na] [Gancyclovir, 9-(1,3-dihydroxy-2-propoxymethyl)guanine, monosodium salt] |  |  |  |  |  |  | k12 = .839 | k21 = .67 | k_elim = .161 | 76,800 ml | 0.839 | 0.670 | 0.161 | 3-20% | 0.55 | 1.43 | 0.59 | 1.43 | no in vivo biotransformation | poorly absorbed
